Source: paper PMC11513924, “Addressing the Intracellular Vestibule of the Plasmodial Lactate Transporter PfFNT by p-Substituted Inhibitors Amplifies In Vitro Activity” (Journal of Medicinal Chemistry, 2024)
Numbering of substitutions follows the chain as printed. Read-outs that look alike come from different tables or passages of the source.

Assays:
[1] = target: T1, PfFNT (Plasmodium falciparum, UniProt O77389); experiment: Yeast-based PfFNT 14C-lactate transport assay; type: cell-based; conditions: 14C-lactate transport, PfFNT wild type; read-out: IC50 (transport, yeast)
T1 construct: expressed in transfected cells; membranes solubilized
T1 sequence (O77389 1-309): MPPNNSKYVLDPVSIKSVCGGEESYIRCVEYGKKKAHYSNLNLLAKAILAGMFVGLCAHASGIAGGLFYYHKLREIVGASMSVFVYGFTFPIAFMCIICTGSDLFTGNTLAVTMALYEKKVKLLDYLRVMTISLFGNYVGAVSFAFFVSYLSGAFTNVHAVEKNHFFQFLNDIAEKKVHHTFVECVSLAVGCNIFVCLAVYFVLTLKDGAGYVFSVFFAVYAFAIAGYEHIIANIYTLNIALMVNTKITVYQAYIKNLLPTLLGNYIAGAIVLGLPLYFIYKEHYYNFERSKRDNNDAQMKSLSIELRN
Method: (§1) Lactate transport functionality of PfFNT was assayed as described before.[4] Briefly, Saccharomyces cerevisiae W303-1A jen1Δady2Δcells[32] (MATa, can1-100, ade2-loc, his3-11-15, leu2-3,-112, trp1-1-1, ura3-1, jen1::kanMX4, ady2::hphMX4) kindly provided by M. Casal expressing PfFNT was grown at 29 °C to an OD600 of 1 (±0.1). Harvested cells were resuspended to an OD600 of 50 (±5) in 50 mM HEPES/Tris, pH 6.8 (±0.1). 10–15 min prior to the assay, 80 μL of yeast suspension were added to 1 μL of DMSO with or without inhibitor in a 1.5 mL reaction tube at 18 °C. Twenty μL of L-lactate solution spiked with [1-^14C]-L-lactate (Hartmann Analytic) was added yielding a 1 mM inward gradient with 0.04 μCi label. Transport was stopped after 30 s by abrupt dilution with 1 mL of ice-cold water, vacuum filtration via GF/C filter membranes (Whatman), and washing with 7 mL of ice-cold water. The radio label was analyzed by liquid scintillation counting in 3 mL of scintillation cocktail (Rotiszint eco plus, Carl Roth) using a Packard TriCarb 2900 TR (PerkinElmer Inc.).
(§2) Transport assays in yeast were done in triplicate biological replicates. At least nine technical replicates were measured around the IC50 value, concentrations with no or full inhibition were determined from at least three technical replicates. EC50-values were determined from 2 to 4 biological replicates. IC50 and EC50 curves were fitted by the Hill equation with variable slope (Graph Pad Prism 10). Error bars denote ± SEM (for n ≥ 3) or ± range (for n = 2). For the EC50-value of 7a the error of the fitting of the curve is given. Cytotoxicity was determined from biological triplicates; error is shown as SEM.

[2] = target: T1, PfFNT; experiment: Fluorescence cross-correlation spectroscopy (FCCS) competition binding to solubilized PfFNT-GFP
Method: FCCS measurements were conducted and analyzed as before.[20],[30] Briefly, membranes of stably transfected cells expressing PfFNT with a C-terminal GFP (green) were solubilized. BH267.meta 2 fused with DY647 (red) was used as a tracer to monitor the binding of compounds in a competition assay. Assays were done in […] glass bottom plates (cat. no. PS96B-G175, SWISSCI, Switzerland) using a plate reader (Insight, Evotec Technologies, Germany) fitted with a U-Apo300 40× water immersion lens, NA 1.15 (Olympus, Japan). Excitation was done with an argon-ion laser (488 nm) and a helium–neon laser (633 nm). Fluorescence fluctuations were recorded 10 times for 5 s per sample and fitted using FCS+ plus Analyze (PerkinElmer software). Initially, IC50 values were determined from the concentration of the dual labeled complex titrated against a competitor in a range of 100 pM to 100 μM (Figure S1). Then, Ki values were calculated using the Cheng Prusoff equation[31] based on the previously determined KD value for the BH267.meta-DY647 tracer.[20]

[3] = tested on: Plasmodium falciparum 3D7 parasites; experiment: P. falciparum 3D7 culture growth assay in erythrocytes (in vitro activity); type: cell-based; conditions: Plasmodium falciparum, 3D7, Erythrocyte; for activity at 0.05 µM / activity at 0.1 µM / activity at 0.2 µM: 48 h, % of untreated control; for activity at 0.05 µM / inhibition at 0.05 µM: 50 nM compound; for activity at 0.05 µM: read-out: % Growth at 50 nM (in vitro, 3D7); for activity at 0.1 µM: 100 nM compound, read-out: % Growth at 100 nM (in vitro, 3D7); for activity at 0.2 µM: 200 nM compound, read-out: % Growth at 200 nM (in vitro, 3D7); for inhibition at 0.05 µM: 100 minus % growth, read-out: inhibitory activity at 50 nM (in vitro, 3D7)
Method: The parasitemia was measured using an LSR II FACS (BD Biosciences) as described.[34],[35] Growth was assessed as % of untreated control. EC50 curves were plotted using Graph Pad Prism.
as §2, with “EC50-values were determined from 2 to 4 biological replicates.” left out, “For the EC50-value of 7a the error of the fitting of the curve is given.” left out

[4] = tested on: albumin; experiment: Plasma protein (albumin) binding by ultracentrifugation; type: in vitro ADME; conditions: pooled human plasma
Method: (§3) Clearance, half-life and plasma protein binding were assayed at TGC LifeScience, Kolkata, India, as described before.[36] Test compounds were incubated in duplicate in 96-well plates at 1 μM concentration with pooled human liver microsomes in 0.1 M phosphate buffer, pH 7.4 (0.4 mg mL^–1 final protein concentration; XenoTech, Lenexa, KS) in the presence and absence of 1 mM NADPH. Metabolism reactions were stopped by addition of 300 μL of ice-cold acetonitrile containing carbamazepine at 0.0236 μg mL^–1 as an internal standard, collection and analysis of the supernatant by LC–MS/MS (Agilent Rapid Resolution HPLC, AB SCIEX 4500 MS). The relative loss of the test compound over time was used to determine the first order rate constant for calculation of the in vitro intrinsic clearance and half-life.[37] Plasma protein binding was determined by ultracentrifugation from pooled human plasma spiked with 5 μM test compound. Aliquots were transferred immediately (total plasma concentration) or after 1 h at 37 °C (protein bound fraction) to ice-cold acetonitrile containing 0.0236 μg mL^–1 carbamazepine as an internal standard, ultracentrifuged for 4 h at 37 °C (Beckman Optima L-80XP), and analyzed by LC–MS/MS (Agilent Rapid Resolution HPLC, AB SCIEX 4500 QTRAP MS).

[5] = tested on: P. berghei; parameters: method as in PMID 37428074; conditions: all dosing regimens; cited from earlier work
[6] = Lipophilicity log D7.4 by HPLC (OECD guideline); type: physicochemical; conditions: RP-8 HPLC column (ZORBAX Eclipse XDB-C8), pH 7.4
Method: Lipophilicity was determined according to the OECD Guidelines for the Testing of Chemicals no. […]. Briefly, the test compounds plus 9 standards (4-acetylpyridine, acetanilide, acetophenone, methyl benzoate, ethyl benzoate, benzophenone, phenyl benzoate, diphenyl ether, triphenylamine) were separated by HPLC with UV detection at 220 nm (Waters HPLC 1525 with tunable absorbance detector 486) using an RP-8 column (Agilent Technologies ZORBAX Eclipse XDB-C8 4.6 × 150 mm, 5 μm) at 20 °C. Eluents A (20 mM ammonium formate, pH 7.4) and B (methanol) were used to generate a gradient profile of 80% A–100% B (0–35 min), 100% B (35–37 min), 100% B–80% A (37–42 min), and 80% A (42–55 min) at a flow rate of 0.8 mL min^–1. The dead time was determined via the injection peak caused by the solvent. The log D7.4 values were calculated by correlating the capacity factors with the known values of the standards via polynomial fitting.

[7] = Microsomal clearance and half-life; type: in vitro ADME, human; conditions: 1 μM compound, 0.4 mg mL^–1 protein
Method: as §3

[8] = tested on: Plasmodium falciparum 3D7 parasites; conditions: ref Walloch[6] et al. 2020; read-out: EC50 (in vitro, 3D7); cited from earlier work
[9] = target: T2, PfFNT G107S (Plasmodium falciparum, UniProt O77389, G107S); experiment: Yeast-based 14C-lactate transport assay, PfFNT G107S resistance mutant; type: cell-based
T2 construct: expressed in transfected cells; host or cells: Saccharomyces cerevisiae (yeast transport assay; strain as for wild type, inferred from the shared method)
T2 sequence (O77389 1-309 G107S): T1 sequence (O77389 1-309) with G107S
Method: as §1, §2

With O=C(/C=C(\O)C(F)(F)C(F)(F)F)c1ccc(NCC2CC2)nc1 [7m, 1-(6-((Cyclopropylmethyl)amino)pyridin-3-yl)-4,4,5,5,5-pentafluoro-3-hydroxypent-2-en-1-one] the IC50 [1] was 0.17 ± 0.01 µM, the Ki [2] was 0.018 ± 0.003 µM and the activity at 0.05 µM [3] was 6%. For the same molecule, the activity at 0.1 µM [3] was 3%, the activity at 0.2 µM [3] was 2% and the inhibition at 0.05 µM [3] was 94%.

Work on CC(C)Nc1ccc(C(=O)/C=C(\O)C(F)(F)C(F)(F)F)cn1 [7n, 4,4,5,5,5-Pentafluoro-3-hydroxy-1-(6-(isopropylamino)pyridin-3-yl)pent-2-en-1-one] yielded an IC50 [1] of 0.15 ± 0.01 µM, a Ki [2] of 0.067 ± 0.011 µM and an activity at 0.05 µM [3] of 53%. For the same molecule, the activity at 0.1 µM [3] was 31% and the activity at 0.2 µM [3] was 15%.

Work on CC(C)(C)Nc1ccc(C(=O)/C=C(\O)C(F)(F)C(F)(F)F)cn1 [7o, 1-(6-(tert-Butylamino)pyridin-3-yl)-4,4,5,5,5-pentafluoro-3-hydroxypent-2-en-1-one] yielded an IC50 [1] of 0.37 ± 0.04 µM, a Ki [2] of 0.239 ± 0.101 µM and an activity at 0.05 µM [3] of 97%. The activity at 0.1 µM [3] was 97% and the activity at 0.2 µM [3] was 93%.

O=C(/C=C(\O)C(F)(F)C(F)(F)F)c1ccc(NCc2ccc(F)cc2)nc1 [7p, 4,4,5,5,5-Pentafluoro-1-(6-((4-fluorobenzyl)amino)pyridin-3-yl)-3-hydroxypent-2-en-1-one] showed an IC50 [1] of 0.39 ± 0.03 µM, a Ki [2] of 0.016 ± 0.003 µM and an activity at 0.05 µM [3] of 37%. For the same molecule, the activity at 0.1 µM [3] was 7% and the activity at 0.2 µM [3] was 0%.

With COc1cc(CNc2ccc(C(=O)/C=C(\O)C(F)(F)C(F)(F)F)cn2)cc(OC)c1OC [7q, 4,4,5,5,5-Pentafluoro-3-hydroxy-1-(6-((3,4,5-trimethoxybenzyl)amino)pyridin-3-yl)pent-2-en-1-one] the IC50 [1] was 2.11 ± 0.32 µM, the Ki [2] was 0.049 ± 0.012 µM and the activity at 0.05 µM [3] was 107%. For the same molecule, the activity at 0.1 µM [3] was 105% and the activity at 0.2 µM [3] was 117%.

With CCCN(C)c1ccc(C(=O)/C=C(\O)C(F)(F)C(F)(F)F)cn1 [7r, 4,4,5,5,5-Pentafluoro-3-hydroxy-1-(6-(methyl(propyl)amino)pyridin-3-yl)pent-2-en-1-one] the IC50 [1] was 0.35 ± 0.08 µM, the Ki [2] was 0.098 ± 0.011 µM and the activity at 0.05 µM [3] was 114%. It also gave an activity at 0.2 µM [3] of 96%.

Work on CCN(CC)c1ccc(C(=O)/C=C(\O)C(F)(F)C(F)(F)F)cn1 [7s, 1-(6-(Diethylamino)pyridin-3-yl)-4,4,5,5,5-pentafluoro-3-hydroxypent-2-en-1-one] yielded an IC50 [1] of 0.38 ± 0.02 µM, a Ki [2] of 0.142 ± 0.024 µM and an activity at 0.05 µM [3] of 71%. It also gave an activity at 0.1 µM [3] of 76% and an activity at 0.2 µM [3] of 80%.

In the case of CCC(=O)Nc1ccc(C(=O)/C=C(\O)C(F)(F)C(F)(F)F)cn1 [8b, N-(5-(4,4,5,5,5-Pentafluoro-3-hydroxypent-2-enoyl)pyridin-2-yl)propionamide], the IC50 [1] is reported as 0.25 ± 0.02 µM, the Ki [2] is reported as 0.027 ± 0.004 µM and the activity at 0.05 µM [3] is reported as 17%. It also gave an activity at 0.1 µM [3] of 10% and an activity at 0.2 µM [3] of 4%.

With O=C(/C=C(\O)C(F)(F)C(F)(F)F)c1ccc(NC(=O)c2ccccc2)nc1 [8c, N-(5-(4,4,5,5,5-Pentafluoro-3-hydroxypent-2-enoyl)pyridin-2-yl)benzamide] the IC50 [1] was 0.37 ± 0.02 µM, the Ki [2] was 0.016 ± 0.002 µM and the activity at 0.05 µM [3] was 78%. For the same molecule, the activity at 0.1 µM [3] was 51% and the activity at 0.2 µM [3] was 13%.

In the case of O=C(/C=C(\O)C(F)(F)C(F)(F)F)c1cccnc1 [compound 2, 4,4,5,5,5-Pentafluoro-3-hydroxy-1-(pyridin-3-yl)pent-2-en-1-one, reference compound], the Ki ([2]; competition against BH267.meta-DY647 tracer, Cheng Prusoff, read-out: Ki (FCCS, protein)) is reported as 0.035 ± 0.01 µM, the “unbound fraction in plasma” value [4] is reported as 8.76% and the albumin binding ([4]; 5 μM) is reported as 91.24%. For the same molecule, the parasites eliminated [5] was over 99.7%, the chromatographic logD [6] was 1.75 and the “human liver microsomes Clint” value [7] was 3.98 mL min^–1 kg^–1. For the same molecule, the half-life at 1 µM ([7]; human, pooled human liver microsomes, pH 7.4, read-out: human liver microsomes t1/2) was 5.8 h, the activity at 0.05 µM [3] was over 90% and the inhibition at 0.05 µM [3] was under 10%. The EC50 [8] was 0.24 ± 0.01 µM.

O=C(/C=C(\O)C(F)(F)C(F)(F)F)c1cccc(O)c1 [compound 6, 4,4,5,5,5-Pentafluoro-3-hydroxy-1-(3-hydroxyphenyl)pent-2-en-1-one] showed an IC50 [1] of 0.16 ± 0.01 µM, a Ki [2] of 0.026 ± 0.003 µM and an IC50 [9] of 6.71 µM.
